From patent US20240391931A1 (Bristol-Myers Squibb Company, priority 2021, published 2024)

Columns and labels:
[1] = biological target: T1, HER2 wildtype (WT) protein (Homo sapiens, UniProt P04626); test: HER2 signaling (pHER2 Tyr1248/total HER2 MSD) in BT474 cells; format: cell-based; settings: 1.5 hr compound, 1% FBS
T1 construct: BT474 and N87 cell lines which endogenously overexpress the HER2 wildtype (WT) protein; endogenous in cells; host or cells: BT474, N87
In short: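 BT474, N87 (HER2 WT) and NCI-H1781 (HER2 G776delinsVC) cells were treated for 1.5 h at 37° C in 1% FBS medium with compound at 0.0005–1.1 μM. pHER2 Tyr1248 was measured by MSD on whole-cell lysates and normalized to total HER2 as % DMSO. EC50 came from a variable-slope sigmoidal fit.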

[2] = biological target: EGFR (Homo sapiens, UniProt P00533); test: EGFR signaling (pEGFR Tyr1068/total EGFR MSD) in A431 cells; format: cell-based; design: endogenous in cells; host or cells: A431, N87; settings: for EC50: A431 cells, read-out: A431 pEGFR EC50; for Selectivity A431 EC50/BT474 EC50: ratio A431 pEGFR EC50 to BT474 pHER2 EC50; for Selectivity A431 EC50/HEKYVMA EC50: ratio A431 pEGFR EC50 to HEK YVMA pHER2 EC50
Chain of EGFR (P00533 25-1210): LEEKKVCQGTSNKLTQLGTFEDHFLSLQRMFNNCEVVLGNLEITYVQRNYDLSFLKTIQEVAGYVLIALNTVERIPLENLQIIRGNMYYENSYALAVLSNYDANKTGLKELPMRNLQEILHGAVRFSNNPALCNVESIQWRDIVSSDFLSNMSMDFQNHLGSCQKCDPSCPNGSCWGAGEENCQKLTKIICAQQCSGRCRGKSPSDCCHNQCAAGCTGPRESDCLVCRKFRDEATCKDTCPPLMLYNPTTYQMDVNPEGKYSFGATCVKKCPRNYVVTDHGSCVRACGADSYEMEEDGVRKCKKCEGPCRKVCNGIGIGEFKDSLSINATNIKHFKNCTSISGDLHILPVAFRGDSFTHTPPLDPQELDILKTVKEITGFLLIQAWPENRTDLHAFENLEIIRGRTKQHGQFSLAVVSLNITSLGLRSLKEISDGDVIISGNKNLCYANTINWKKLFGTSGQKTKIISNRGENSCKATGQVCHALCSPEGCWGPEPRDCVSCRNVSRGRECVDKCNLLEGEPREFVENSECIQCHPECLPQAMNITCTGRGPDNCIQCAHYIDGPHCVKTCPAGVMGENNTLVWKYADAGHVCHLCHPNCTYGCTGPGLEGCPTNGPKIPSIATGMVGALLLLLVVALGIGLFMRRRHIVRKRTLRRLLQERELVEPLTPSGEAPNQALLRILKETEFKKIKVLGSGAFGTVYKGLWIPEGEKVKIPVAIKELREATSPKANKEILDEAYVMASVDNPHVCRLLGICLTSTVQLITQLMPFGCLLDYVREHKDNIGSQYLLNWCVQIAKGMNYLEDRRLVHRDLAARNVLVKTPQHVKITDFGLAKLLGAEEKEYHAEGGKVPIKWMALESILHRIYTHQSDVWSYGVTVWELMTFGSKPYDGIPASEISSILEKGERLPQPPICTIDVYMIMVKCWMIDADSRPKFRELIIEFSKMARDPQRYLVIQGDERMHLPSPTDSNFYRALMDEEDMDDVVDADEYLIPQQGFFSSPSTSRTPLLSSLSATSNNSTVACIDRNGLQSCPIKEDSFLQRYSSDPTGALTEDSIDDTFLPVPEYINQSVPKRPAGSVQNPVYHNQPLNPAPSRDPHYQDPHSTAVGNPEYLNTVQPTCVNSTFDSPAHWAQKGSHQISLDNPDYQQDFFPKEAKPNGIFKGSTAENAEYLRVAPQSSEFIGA
In short: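 Serum-starved A431 cells were pretreated 1.5 h in 1% FBS with compound (0.005–10 μM, 0.1% DMSO), then stimulated with 100 ng/mL human EGF for 10 min. Lysate pEGFR Tyr1068 was measured by MSD and normalized to total EGFR as % DMSO control; EC50 from variable-slope sigmoidal fit.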

T1 sequence (P04626 23-1255): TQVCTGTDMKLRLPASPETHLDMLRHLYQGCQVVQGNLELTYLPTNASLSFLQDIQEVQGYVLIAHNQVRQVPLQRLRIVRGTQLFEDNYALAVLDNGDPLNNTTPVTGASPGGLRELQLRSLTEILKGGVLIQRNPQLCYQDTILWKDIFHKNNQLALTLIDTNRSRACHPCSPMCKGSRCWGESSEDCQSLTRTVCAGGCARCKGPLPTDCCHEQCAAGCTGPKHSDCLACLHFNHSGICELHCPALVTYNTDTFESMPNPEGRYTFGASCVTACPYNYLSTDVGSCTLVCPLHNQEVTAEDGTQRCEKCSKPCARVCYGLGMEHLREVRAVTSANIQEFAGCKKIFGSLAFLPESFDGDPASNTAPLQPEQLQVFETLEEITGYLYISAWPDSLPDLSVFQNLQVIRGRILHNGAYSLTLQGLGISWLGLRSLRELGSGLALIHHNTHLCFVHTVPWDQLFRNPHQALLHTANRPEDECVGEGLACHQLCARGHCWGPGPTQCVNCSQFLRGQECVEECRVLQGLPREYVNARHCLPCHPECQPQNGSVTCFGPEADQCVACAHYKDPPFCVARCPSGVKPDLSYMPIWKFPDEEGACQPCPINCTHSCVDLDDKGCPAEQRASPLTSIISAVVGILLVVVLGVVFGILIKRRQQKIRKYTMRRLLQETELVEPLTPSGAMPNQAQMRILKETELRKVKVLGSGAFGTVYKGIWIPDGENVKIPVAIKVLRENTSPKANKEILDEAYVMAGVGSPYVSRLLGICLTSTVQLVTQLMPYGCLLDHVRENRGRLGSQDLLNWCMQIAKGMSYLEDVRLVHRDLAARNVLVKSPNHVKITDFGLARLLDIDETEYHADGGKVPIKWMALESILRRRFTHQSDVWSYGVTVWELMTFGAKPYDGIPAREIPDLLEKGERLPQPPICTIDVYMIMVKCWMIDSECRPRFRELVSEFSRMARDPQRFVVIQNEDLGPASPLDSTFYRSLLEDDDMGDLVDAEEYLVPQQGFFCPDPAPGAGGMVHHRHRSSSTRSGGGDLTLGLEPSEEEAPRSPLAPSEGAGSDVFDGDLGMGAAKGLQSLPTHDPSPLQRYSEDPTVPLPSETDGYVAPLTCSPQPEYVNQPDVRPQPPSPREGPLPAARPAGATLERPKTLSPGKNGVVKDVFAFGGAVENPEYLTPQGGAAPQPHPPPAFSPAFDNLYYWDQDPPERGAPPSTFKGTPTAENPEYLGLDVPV

Structure (SMILES)	EC50 [1]	EC50 [2]	Selectivity A431 EC50/BT474 EC50 [2]	Selectivity A431 EC50/HEKYVMA EC50 [2]
CN(C/C=C/C(=O)N1CCc2c(sc3ncnc(Nc4ccc(Oc5ccc6ncnn6c5)c(Cl)c4)c23)C1)C(C)(C)C [Compound 91]	< 100 nM	< 100 nM	C (C: ≥ 10 and < 20)	D (D: ≥ 5 and < 10)
O=C(/C=C/CN1CC2C(CO)C2C1)N1CCc2c(sc3ncnc(Nc4ccc(Oc5ccc6ncnn6c5)c(Cl)c4)c23)C1 (stereo not shown) [Compound 92]	< 100 nM	< 100 nM	C (C: ≥ 10 and < 20)	C (C: ≥ 10 and < 20)
COc1ccc(Oc2ccc(Nc3ncnc4sc5c(c34)CCN(C(=O)/C=C/CN(C)C)C5)cc2C)cn1 [Compound 95, (E)-4-(Dimethylamino)-1-(4-((4-((6-methoxypyridin-3-yl)oxy)-3-methylphenyl)amino)-5,6-dihydropyrido[4′,3′:4,5]thieno[2,3-d]pyrimidin-7(8H)-yl)but-2-en-1-one]	< 100 nM	100 to 1000 nM	D (D: ≥ 5 and < 10)	C (C: ≥ 10 and < 20)
CCOC/C=C/C(=O)N1CCc2c(sc3ncnc(Nc4ccc(Oc5ccc(C)nc5)c(C)c4)c23)C1 [Compound 96, (E)-4-ethoxy-1-(4-((3-methyl-4-((6-methylpyridin-3-yl)oxy)phenyl)amino)-5,8-dihydropyrido[4′,3′:4,5]thieno[2,3-d]pyrimidin-7(6H)-yl)but-2-en-1-one]	< 100 nM	100 to 1000 nM	C (C: ≥ 10 and < 20)	D (D: ≥ 5 and < 10)
Cc1ccc(Oc2ccc(Nc3ncnc4sc5c(c34)C(C)CN(C(=O)/C=C/CN(C)C)C5)cc2C)cn1 (stereo not shown) [Compound 98, (E)-4-(dimethylamino)-1-(5-methyl-4-((3-methyl-4-((6-methylpyridin-3-yl)oxy)phenyl)amino)-5,8-dihydropyrido[4′,3′:4,5]thieno[2,3-d]pyrimidin-7(6H)-yl)but-2-en-1-one]	< 100 nM	100 to 1000 nM	C (C: ≥ 10 and < 20)	D (D: ≥ 5 and < 10)
Cc1ccc(Oc2ccc(Nc3ncnc4sc5c(c34)CN(C(=O)/C=C/CN(C)C)C5)cc2C)cn1 [Compound 99, (E)-4-(dimethylamino)-1-(4-((3-methyl-4-((6-methylpyridin-3-yl)oxy)phenyl)amino)-5,7-dihydro-6H-pyrrolo[3′,4′:4,5]thieno[2,3-d]pyrimidin-6-yl)but-2-en-1-one]	< 100 nM	100 to 1000 nM	B (B: ≥ 20 and < 100)	B (B: ≥ 20 and < 100)
C=CC(=O)N1CCc2[nH]c3ncnc(Nc4ccc(Oc5ccc6ncnn6c5)c(C)c4)c3c2C1 [Compound 102, 1-(4-((4-([1,2,4]triazolo[1,5-a]pyridin-6-yloxy)-3-methylphenyl)amino)-5,7,8,9-tetrahydro-6H-pyrido[3′,4′:4,5]pyrrolo[2,3-d]pyrimidin-6-yl)prop-2-en-1-one]	< 100 nM	1000 to 10000 nM	C (C: ≥ 10 and < 20)	C (C: ≥ 10 and < 20)
Cc1cc(Nc2ncnc3sc4c(c23)CCN(C(=O)/C=C/CN(C)C)C4)ccc1Oc1ccc2nonc2c1 [Compound 104, (E)-1-(4-((4-(Benzo[c][1,2,5]oxadiazol-5-yloxy)-3-methylphenyl)amino)-5,6-dihydropyrido[4′,3′:4,5]thieno[2,3-d]pyrimidin-7(8H)-yl)-4-(dimethylamino)but-2-en-1-one]	< 100 nM	< 100 nM	D (D: ≥ 5 and < 10)	D (D: ≥ 5 and < 10)

The next lines start with the values.

EC50 [1]	EC50 [2]	Selectivity A431 EC50/BT474 EC50 [2]	Selectivity A431 EC50/HEKYVMA EC50 [2]	Structure (SMILES)
< 100 nM	100 to 1000 nM	C (C: ≥ 10 and < 20)	E (E: >1 and < 5)	C=CC(=O)N1CCc2[nH]c3ncnc(Nc4ccc(Oc5ccc(C)nc5)c(C)c4)c3c2C1 [Compound 94, 1-(4-((3-methyl-4-((6-methylpyridin-3-yl)oxy)phenyl)amino)-7,8-dihydro-5H-pyrido[3′,4′:4,5]pyrrolo[2,3-d]pyrimidin-6(9H)-yl)prop-2-en-1-one]
< 100 nM	100 to 1000 nM	B (B: ≥ 20 and < 100)	E (E: >1 and < 5)	Cc1ccc(Oc2ccc(Nc3ncnc4[nH]c5c(c34)CN(C(=O)/C=C/CN(C)C)CC5)cc2C)cn1 [Compound 97, (E)-4-(dimethylamino)-1-(4-((3-methyl-4-((6-methylpyridin-3-yl)oxy)phenyl)amino)-5,7,8,9-tetrahydro-6H-pyrido[3′,4′:4,5]pyrrolo[2,3-d]pyrimidin-6-yl)but-2-en-1-one]
< 100 nM	100 to 1000 nM	B (B: ≥ 20 and < 100)	C (C: ≥ 10 and < 20)	Cc1ccc(Oc2ccc(Nc3ncnc4sc5c(c34)CCN(C(=O)/C=C/CN(C)C)CC5)cc2C)cn1 [Compound 100, (E)-4-(dimethylamino)-1-(4-((3-methyl-4-((6-methylpyridin-3-yl)oxy)phenyl)amino)-8,9-dihydro-5H-pyrimido[5′,4′:4,5]thieno[2,3-d]azepin-7(6H)-yl)but-2-en-1-one]
< 100 nM	100 to 1000 nM	C (C: ≥ 10 and < 20)	C (C: ≥ 10 and < 20)	Cc1ccc(Oc2ccc(Nc3ncnc4sc5c(c34)CCCN(C(=O)/C=C/CN(C)C)C5)cc2C)cn1 [Compound 101, (E)-4-(Dimethylamino)-1-(4-((3-methyl-4-((6-methylpyridin-3-yl)oxy)phenyl)amino)-6,7-dihydro-5H-pyrimido[5′,4′:4,5]thieno[2,3-c]azepin-8(9H)-yl)but-2-en-1-one]
< 100 nM	100 to 1000 nM	B (B: ≥ 20 and < 100)	B (B: ≥ 20 and < 100)	Cc1cc(Nc2ncnc3sc4c(c23)CN(C(=O)/C=C/CN(C)C)CC4)ccc1Oc1ccc2ncnn2c1 [Compound 103, (E)-1-(4-((4-([1,2,4]triazolo[1,5-a]pyridin-6-yloxy)-3-methylphenyl)amino)-7,8-dihydropyrido[3′,4′:4,5]thieno[2,3-d]pyrimidin-6(5H)-yl)-4-(dimethylamino)but-2-en-1-one]
